Reference: patent US10821115B2, “Compounds that inhibit Mcl-1 protein” (priority 2017, dated 2020)
Where two headings read alike, the source gives them in different places.

Tested on: human multiple myeloma cell line, OPM-2
Experiment: Cell viability assay (OPM-2 10 FBS), CellTiter-Glo
Format: cell-based
Description: Cell viability assay (OPM-2 10 FBS)
The human multiple myeloma cell line, OPM-2, was cultured in complete growth medium containing RPMI 1640 and 10% fetal bovine serum (FBS). Cells were seeded into 384-well plates at 3000 cells/well density in complete growth medium containing 10% FBS, and incubated for 16 h with serially diluted test compounds in a 37° C. incubator with 5% CO2. Cell viability was tested using CellTiter-Glo® assay (Promega, Madison, Wis.) according to the manufacturer recommendations. Luminescence was determined using an EnVision® Multilabel plate reader 25 min after the addition of detection reagent. IC50 values were then calculated with Xlfit using a logistical 4-parameter fit model in GraphPad Prism (GraphPad Software, San Diego, Calif.) or in Genedata Screener® (Genedata, Basel, Switzerland).

[1] = read-out: OPM-2 10% FBS IC50 IP, OPM-2 cells, 10% FBS, 16 h incubation
[2] = Homo sapiens, OPM-2, 16 h, read-out: OPM-2 10% FBS IC50 IP, OPM-2 cells, 10% FBS, 16 h incubation

Compound | IC50 [1] [µM] | IC50 [2] [µM]
CO[C@@]1(CN2CCN3CCCC[C@@H]3C2)/C=C/C[C@H](C)[C@@H](Cc2ccccc2)S(=O)(=O)NC(=O)c2ccc3c(c2)N(C[C@@H]2CC[C@H]21)C[C@@]1(CCCc2cc(Cl)ccc21)CO3 (single isomer, unassigned) [Example 104] | 0.782 | 
CO[C@@]1(CN2CCN3CCN(C)C[C@@H]3C2)/C=C/C[C@H](C)[C@@H](C)S(=O)(=O)NC(=O)c2ccc3c(c2)N(C[C@@H]2CC[C@H]21)C[C@@]1(CCCc2cc(Cl)ccc21)CO3 (single isomer, unassigned) [Example 217] | 0.192 | 
CO[C@@]1(CN2CCN3CCN(C(C)=O)C[C@@H]3C2)/C=C/C[C@H](C)[C@@H](C)S(=O)(=O)NC(=O)c2ccc3c(c2)N(C[C@@H]2CC[C@H]21)C[C@@]1(CCCc2cc(Cl)ccc21)CO3 (single isomer, unassigned) [Example 225] | 0.28 | 
CO[C@@]1(CN2CCN3CCN(C(C)=O)C[C@@H]3C2)/C=C/C[C@H](C)[C@@H](C)S(=O)(=O)NC(=O)c2ccc3c(c2)N(C[C@@H]2CC[C@H]21)C[C@@]1(CCCc2cc(Cl)ccc21)CO3 (single isomer, unassigned) [Example 226] | 0.049 | 
CO[C@]1(CN2CCN3CCN(C(C)=O)C[C@@H]3C2)/C=C/C[C@H](C)[C@@H](C)S(=O)(=O)NC(=O)c2ccc3c(c2)N(C[C@@H]2CC[C@H]21)C[C@@]1(CCCc2cc(Cl)ccc21)CO3 (single isomer, unassigned) [Example 229] | 0.096 | 
CO[C@]1(CN2CCN3CCN(C(C)=O)C[C@@H]3C2)/C=C/C[C@H](C)[C@@H](C)S(=O)(=O)NC(=O)c2ccc3c(c2)N(C[C@@H]2CC[C@H]21)C[C@@]1(CCCc2cc(Cl)ccc21)CO3 (single isomer, unassigned) [Example 230] | 0.07 | 
C[C@@H]1[C@@H](C)C/C=C/C(O)(CN2CCN3CCCC[C@@H]3C2)[C@@H]2CC[C@H]2CN2C[C@@]3(CCCc4cc(Cl)ccc43)COc3ccc(cc32)C(=O)NS1(=O)=O (single isomer, unassigned) [Example 242] | 0.791 | 
C[C@@H]1[C@@H](C)C/C=C/C(O)(CN2CCN3CCCC[C@@H]3C2)[C@@H]2CC[C@H]2CN2C[C@@]3(CCCc4cc(Cl)ccc43)COc3ccc(cc32)C(=O)NS1(=O)=O (single isomer, unassigned) [Example 243] | 0.106 | 
CCO[C@]1(CN2CCN(C3COC3)CC2)/C=C/C[C@H](C)[C@@H](C)S(=O)(=O)NC(=O)c2ccc3c(c2)N(C[C@@H]2CC[C@H]21)C[C@@]1(CCCc2cc(Cl)ccc21)CO3 [Example 2, (1 S,3′R,6′R,7′R,8′E,11′S,12′R)-6-chloro-7′-ethoxy-11′,12′-dimethyl-7′-((4-(3-oxetanyl)-1-piperazinyl)methyl)-3,4-dihydro-2H, 15′H-spiro[naphthalene-1,22′-[20]oxa[13]thia[1,14]diazatetracyclo[14.7.2.0-3,6˜.0˜19,24˜]pentacosa[8,16,18,24]tetraen]-15′-one 13′,13′-dioxide] |  | 0.076
CCO[C@]1(CN2CCN(C(C)(C)C)CC2)/C=C/C[C@H](C)[C@@H](C)S(=O)(=O)NC(=O)c2ccc3c(c2)N(C[C@@H]2CC[C@H]21)C[C@@]1(CCCc2cc(Cl)ccc21)CO3 [Example 6, (1S,3′R,6′R,7′R,8′E,11′S,12′R)-7′-((4-TERT-BUTYL-1-PIPERAZINYL)METHYL)-6-CHLORO-7′-ETHOXY-11′,12′-DIMETHYL-3,4-DIHYDRO-2H,15′H-SPIRO[NAPHTHALENE-1,22′-[20]OXA[13]THIA[1,14]DIAZATETRACYCLO[14.7.2.0-3,6˜.0˜19,24˜]PENT ACOSA[8,16,18,24]TETRAEN]-15′-ONE 13′,13′-DIOXIDE] |  | 0.076
C[C@@H]1[C@@H](C)CCC[C@@](O)(CN2CCN3CCOC[C@@H]3C2)[C@@H]2CC[C@H]2CN2C[C@@]3(CCCc4cc(Cl)ccc43)COc3ccc(cc32)C(=O)NS1(=O)=O [Example 7, (1S,3′R,6′R,7′S,11′S,12′R)-6-CHLORO-7′-((9AS)-HEXAHYDROPYRAZINO [2,1-C][1,4]OXAZIN-8(1H)-YLMETHYL)-7′-HYDROXY-11′,12′-DIMETHYL-3,4-DIHYDRO-2H, 15′H-SPIRO[NAPHTHALENE-1,22′-[20]OXA[13]THIA[1,14]DIAZATETRACYCLO[14.7.2.0-3,6˜.0˜19,24˜]PENT ACOSA[16,18,24]TRIEN]-15′-ONE 13′,13′-DIOXIDE] | 0.025 | 
CCO[C@]1(CN2CCN(C(C)C)[C@H](C)C2)/C=C/C[C@H](C)[C@@H](C)S(=O)(=O)NC(=O)c2ccc3c(c2)N(C[C@@H]2CC[C@H]21)C[C@@]1(CCCc2cc(Cl)ccc21)CO3 [Example 9, (1 S,3′R,6′R,7′R,8′E,11′S, 12′R)-6-CHLORO-7′-ETHOXY-11′,12′-DIMETHYL-7′-(((3R)-3-METHYL-4-(1-METHYLETHYL)-1-PIPERAZINYL)METHYL)-3,4-DIHYDRO-2H, 15′H-SPIRO[NAPHTHALENE-1,22′-[20]OXA[13]THIA[1,14]DIAZATETRACYCLO[14.7.2.0-3,6˜.0˜19,24˜]PENT ACOSA[8,16,18,24]TETRAEN]-15′-ONE 13′,13′-DIOXIDE] | 0.05 | 
COCC[C@@H]1[C@@H](C)C/C=C/[C@@](CN2CCN(C(C)C)[C@H](C)C2)(OC)[C@@H]2CC[C@H]2CN2C[C@@]3(CCCc4cc(Cl)ccc43)COc3ccc(cc32)C(=O)NS1(=O)=O [Example 12, (1S,3′R,6′R,7′R,8′E,11′S,12′R)-6-chloro-7′-methoxy-12′-(2-methoxyethyl)-11′-methyl-7′-(((3R)-3-methyl-4-(1-methylethyl)-1-piperazinyl)methyl)-3,4-dihydro-2H, 15′H-spiro[naphthalene-1,22′-[20]oxa[13]thia[1,14]diazatetracyclo[14.7.2.0-3,6˜.0˜19,24˜]pentacosa[8,16,18,24]tetraen]-15′-one 13′,13′-dioxide] |  | 0.022
CCO[C@]1(CN2CCN3CCOC[C@@H]3C2)/C=C/C[C@H](C)[C@@H](CCOC)S(=O)(=O)NC(=O)c2ccc3c(c2)N(C[C@@H]2CC[C@H]21)C[C@@]1(CCCc2cc(Cl)ccc21)CO3 [Example 13, (1 S,3′R,6′R,7′R,8′E,11′S,12′R)-6-chloro-7′-ethoxy-7′-((9aS)-hexahydropyrazino[2,1-c][1,4]oxazin-8(1H)-ylmethyl)-12′-(2-methoxyethyl)-11′-methyl-3,4-dihydro-2H,15′H-spiro[naphthalene-1,22′-[20]oxa[13]thia[1,14]diazatetracyclo[14.7.2.0-3,6˜.0˜19,24˜]pentacosa[8,16,18,24]tetraen]-15′-one 13′,13′-dioxide] |  | 0.063
CCO[C@]1(CN2CCN(C3COC3)CC2)/C=C/C[C@H](C)[C@@H](CCOC)S(=O)(=O)NC(=O)c2ccc3c(c2)N(C[C@@H]2CC[C@H]21)C[C@@]1(CCCc2cc(Cl)ccc21)CO3 [Example 14, (1S,3′R,6′R,7′R,8′E,11′S,12′R)-6-chloro-7′-ethoxy-12′-(2-methoxyethyl)-11′-methyl-7′-((4-(3-oxetanyl)-1-piperazinyl)methyl)-3,4-dihydro-2H,15′H-spiro[naphthalene-1,22′-[20]oxa[13]thia[1,14]diazatetracyclo[14.7.2.0-3,6˜.0˜19,24˜]pentacosa[8,16,18,24]tetraen]-15′-one 13′,13′-dioxide] |  | 0.059
CCO[C@]1(CN2CCN3CCCC[C@@H]3C2)/C=C/C[C@H](C)[C@@H](CCOC)S(=O)(=O)NC(=O)c2ccc3c(c2)N(C[C@@H]2CC[C@H]21)C[C@@]1(CCCc2cc(Cl)ccc21)CO3 [Example 15, (1S,3′R,6′R,7′R,8′E,11′S,12′R)-6-chloro-7′-ethoxy-12′-(2-methoxyethyl)-11′-methyl-7′-((9aR)-octahydro-2H-pyrido[1,2-a]pyrazin-2-ylmethyl)-3,4-dihydro-2H,15′H-spiro[naphthalene-1,22′-[20]oxa[13]thia[1,14]diazatetracyclo[14.7.2.0-3,6˜.0˜19,24˜]pentacosa[8,16,18,24]tetraen]-15′-one 13′,13′-dioxide] |  | 0.071
CCO[C@]1(CN2CCN(C(C)C)CC2)/C=C/C[C@H](C)[C@@H](CCOC)S(=O)(=O)NC(=O)c2ccc3c(c2)N(C[C@@H]2CC[C@H]21)C[C@@]1(CCCc2cc(Cl)ccc21)CO3 [Example 16, (1S,3′R,6′R,7′R,8′E,11′S,12′R)-6-chloro-7′-ethoxy-12′-(2-methoxyethyl)-11′-methyl-7′-((4-(1-methylethyl)-1-piperazinyl)methyl)-3,4-dihydro-2H, 15′H-spiro[naphthalene-1,22′-[20]oxa[13]thia[1,14]diazatetracyclo[14.7.2.0-3,6˜.0˜19,24˜]pentacosa[8,16,18,24]tetraen]-15′-one 13′,13′-dioxide] |  | 0.053
CCO[C@]1(CN2CCN(C(C)C)[C@H](C)C2)/C=C/C[C@H](C)[C@@H](CCOC)S(=O)(=O)NC(=O)c2ccc3c(c2)N(C[C@@H]2CC[C@H]21)C[C@@]1(CCCc2cc(Cl)ccc21)CO3 [Example 17, (1S,3′R,6′R,7′R,8′E,11′S,12′R)-6-chloro-7′-ethoxy-12′-(2-methoxyethyl)-11′-methyl-7′-(((3R)-3-methyl-4-(1-methylethyl)-1-piperazinyl)methyl)-3,4-dihydro-2H,15′H-spiro[naphthalene-1,22′-[20]oxa[13]thia[1,14]diazatetracyclo[14.7.2.0-3,6˜.0˜19,24˜]pentacosa[8,16,18,24]tetraen]-15′-one 13′,13′-dioxide] | 0.034 | 
CO[C@@]1(CN2CCN(C3COC3)CC2)/C=C/C[C@H](C)[C@@H](C)S(=O)(=O)NC(=O)c2ccc3c(n2)N(C[C@@H]2CC[C@H]21)C[C@@]1(CCCc2cc(Cl)ccc21)CO3 [Example 19, (1 S,3′R,6′R,7′S,8′E,11′S,12′R)-6-chloro-7′-methoxy-11′,12′-dimethyl-7′-((4-(3-oxetanyl)-1-piperazinyl)methyl)-3,4-dihydro-2H, 15′H-spiro[naphthalene-1,22′-[20]oxa[13]thia[1,14,25]triazatetracyclo[14.7.2.0-3,6˜.0˜19,24˜]pentacosa[8,16,18,24]tetraen]-15′-one 13′,13′-dioxide] |  | 0.047
